One assay has as its target PTGER4 (EP4) (Homo sapiens (Human), UniProt P35408). In words: cell-based.
The target in a further assay is PTGER2 (EP2) (Homo sapiens (Human), UniProt P43116). The assay can be described thus: hEP2 b-arrestin assay (PathHunter HEK 293 PTGER2 b-arrestin cells). It is filed as cell-based. The conditions noted are these: antagonistic activity, beta-arrestin assay; read-out: hEP2 b-arr IC50. How it is done: Plate is pre-incubated 15 minutes at 37° C. Then five microliters of PGE2 (final conc. 5 μM) are transferred into the assay plate. Plate is incubated 120 minutes at 37° C.
(each concentration is measured in duplicate)

Each structure is given as a SMILES string.

One may read the IC50 as the point on the concentration scale where inhibition reaches its midpoint.

PTGER2 (EP2), sequence (P43116 whole entry): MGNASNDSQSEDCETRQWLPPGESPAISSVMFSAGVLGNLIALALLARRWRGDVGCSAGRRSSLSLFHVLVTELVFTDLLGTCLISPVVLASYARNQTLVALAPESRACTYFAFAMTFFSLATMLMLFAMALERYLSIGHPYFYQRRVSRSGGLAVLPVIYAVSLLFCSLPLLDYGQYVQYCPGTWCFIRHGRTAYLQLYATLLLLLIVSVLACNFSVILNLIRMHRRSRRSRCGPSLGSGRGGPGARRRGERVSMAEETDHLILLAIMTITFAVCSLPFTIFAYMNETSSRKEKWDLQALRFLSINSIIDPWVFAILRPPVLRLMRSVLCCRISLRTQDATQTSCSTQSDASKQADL
PTGER4 (EP4), sequence (P35408 whole entry): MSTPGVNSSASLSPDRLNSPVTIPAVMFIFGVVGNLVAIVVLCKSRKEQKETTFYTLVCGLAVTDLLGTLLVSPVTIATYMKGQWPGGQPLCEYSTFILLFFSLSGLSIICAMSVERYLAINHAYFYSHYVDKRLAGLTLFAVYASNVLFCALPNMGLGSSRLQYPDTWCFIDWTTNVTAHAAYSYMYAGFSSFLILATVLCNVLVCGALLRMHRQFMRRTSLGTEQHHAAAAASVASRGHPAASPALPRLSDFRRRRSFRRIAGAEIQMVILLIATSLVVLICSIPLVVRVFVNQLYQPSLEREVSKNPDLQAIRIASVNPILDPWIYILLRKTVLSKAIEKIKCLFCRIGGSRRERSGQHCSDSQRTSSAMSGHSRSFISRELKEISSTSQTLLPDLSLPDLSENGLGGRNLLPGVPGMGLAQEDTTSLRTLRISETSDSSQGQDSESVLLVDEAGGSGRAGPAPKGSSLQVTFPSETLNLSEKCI

With `COc1cc(-c2cc(NCCc3c(OC)cc4ccccc4c3C)ncn2)ccc1CC(=O)O` [Example 384, (2-Methoxy-4-{6-[2-(3-methoxy-1-methyl-naphthalen-2-yl)-ethylamino]-pyrimidin-4-yl}-phenyl)-acetic acid], the results for the IC50 at PTGER4 (EP4) and at PTGER2 (EP2) were 28 nM and 145 nM, respectively.

For the compound `CCCc1cc(-c2cc(NCCc3c(OC)cc4c(c3F)OCCO4)ncn2)ccc1CC(=O)O` [Example 408, (4-{6-[2-(5-Fluoro-7-methoxy-2,3-dihydro-benzo[1,4]dioxin-6-yl)-ethylamino]-pyrimidin-4-yl}-2-propyl-phenyl)-acetic acid], the IC50 was 24 nM against PTGER4 (EP4) and 29 nM on PTGER2 (EP2).

In the case of `CCOc1cc2c(cc1CCNc1cc(-c3ccc(CC(=O)O)c(OC(F)(F)F)c3)ncn1)OCCO2` [Example 427, (4-{6-[2-(7-Ethoxy-2,3-dihydro-benzo[1,4]dioxin-6-yl)-ethylamino]-pyrimidin-4-yl}-2-trifluoromethoxy-phenyl)-acetic acid], the IC50 is 90 nM at PTGER4 (EP4) and 17 nM on PTGER2 (EP2).

Take `Cc1cc(-c2cc(NCCc3cc(F)c4sccc4c3)ncn2)ccc1CC(=O)O` [Example 544, (4-{6-[2-(7-Fluoro-benzo[b]thiophen-5-yl)-ethylamino]-pyrimidin-4-yl}-2-methyl-phenyl)-acetic acid]: the results for the IC50 against PTGER4 (EP4) and at PTGER2 (EP2) were 452 nM and 851 nM, respectively.

For `CCOc1cc(-c2cc(NCCc3ccc4ccccc4c3C)ncn2)ccc1-c1noc(=S)[nH]1` [Example 565, 3-(2-Ethoxy-4-{6-[2-(1-methyl-naphthalen-2-yl)-ethylamino]-pyrimidin-4-yl}-phenyl)-[1,2,4]oxadiazole-5(4H)-thione], the IC50 worked out at 23 nM at PTGER4 (EP4) and 58 nM at PTGER2 (EP2).

As for `CCOc1cc(-c2cc(NCCc3ccc4sccc4c3F)ncn2)ccc1C(=O)O` [Example 365, 2-Ethoxy-4-{6-[2-(4-fluoro-benzo[b]thiophen-5-yl)-ethylamino]-pyrimidin-4-yl}-benzoic acid], the results for the IC50 at PTGER4 (EP4) and on PTGER2 (EP2) were 149 nM and 77 nM, respectively.

Consider `CCOc1cc(-c2cc(NCCc3ccc4ccccc4c3C)ncn2)ccc1Cc1noc(=S)[nH]1` [Example 567, 3-(2-Ethoxy-4-{6-[2-(1-methyl-naphthalen-2-yl)-ethylamino]-pyrimidin-4-yl}-benzyl)-[1,2,4]oxadiazole-5(4H)-thione], for which the values for the IC50 at PTGER4 (EP4) and at PTGER2 (EP2) were 264 nM and 255 nM, respectively.

On to `COc1cc2c(c(C)c1CCNc1cc(-c3ccc(CC(=O)O)c(OC(C)C)c3)ncn1)OCCO2` [Example 426, (2-Isopropoxy-4-{6-[2-(7-methoxy-5-methyl-2,3-dihydro-benzo[1,4]dioxin-6-yl)-ethylamino]-pyrimidin-4-yl}-phenyl)-acetic acid], for which the IC50 against PTGER4 (EP4) turned out to be 46 nM; on PTGER2 (EP2), 9 nM.

`CCCc1cc(-c2cc(NCCc3cc(F)c4sccc4c3)ncn2)sc1CC(=O)O` [Example 556, (5-{6-[2-(7-Fluoro-benzo[b]thiophen-5-yl)-ethylamino]-pyrimidin-4-yl}-3-propyl-thiophen-2-yl)-acetic acid]: the results for the IC50 on PTGER4 (EP4) and on PTGER2 (EP2) were 19 nM and 246 nM, respectively.

For the compound `Cc1cc(-c2cc(NCCc3cc(F)c4sccc4c3)ncn2)cc(C)c1O` [Example 532, 4-{6-[2-(7-Fluoro-benzo[b]thiophen-5-yl)-ethylamino]-pyrimidin-4-yl}-2,6-dimethyl-phenol], the IC50 at PTGER4 (EP4) came out at 69 nM; on PTGER2 (EP2) it was 293 nM.

Regarding `CCOc1cc(-c2cc(NCCc3ccc4scc(Cl)c4c3)ncn2)ccc1CC(=O)O` [Example 431, (4-{6-[2-(3-Chloro-benzo[b]thiophen-5-yl)-ethylamino]-pyrimidin-4-yl}-2-ethoxy-phenyl)-acetic acid], the figures for the IC50 against PTGER4 (EP4) and on PTGER2 (EP2) were 52 nM and 179 nM, respectively.

With `CCCc1cc(-c2cc(NCCc3c(OC)cc4ccccc4c3C)ncn2)ccc1CC(=O)O` [Example 388, (4-{6-[2-(3-Methoxy-1-methyl-naphthalen-2-yl)-ethylamino]-pyrimidin-4-yl}-2-propyl-phenyl)-acetic acid], the IC50 was 13 nM on PTGER4 (EP4) and 45 nM at PTGER2 (EP2).

Turning to `COc1cc(-c2cc(NCCc3cc(F)c4sccc4c3)ncn2)ccc1CCC(=O)O` [Example 560, 3-(4-{6-[2-(7-Fluoro-benzo[b]thiophen-5-yl)-ethylamino]-pyrimidin-4-yl}-2-methoxy-phenyl)-propionic acid], the IC50 on PTGER4 (EP4) worked out at 134 nM; on PTGER2 (EP2) it was 476 nM.

For `CCOc1cc2c(cc1CCNc1cc(-c3ccc(CC(=O)O)c(OC(C)C)c3)ncn1)OCCO2` [Example 425, (4-{6-[2-(7-Ethoxy-2,3-dihydro-benzo[1,4]dioxin-6-yl)-ethylamino]-pyrimidin-4-yl}-2-isopropoxy-phenyl)-acetic acid], the figures for the IC50 against PTGER4 (EP4) and at PTGER2 (EP2) were 152 nM and 65 nM, respectively.

Consider `CCCc1cc(-c2cc(NCCc3ccc4sccc4c3F)ncn2)ccc1C(=O)O` [Example 378, 4-{6-[2-(4-Fluoro-benzo[b]thiophen-5-yl)-ethylamino]-pyrimidin-4-yl}-2-propyl-benzoic acid], for which the results for the half-maximal inhibitory concentration (IC50) on PTGER4 (EP4) and on PTGER2 (EP2) were 36 nM and 20 nM, respectively.

In the case of `CCc1cc(-c2cc(NCCc3ccc4sccc4c3F)ncn2)ccc1CC(=O)O` [Example 514, (2-Ethyl-4-{6-[2-(4-fluoro-benzo[b]thiophen-5-yl)-ethylamino]-pyrimidin-4-yl}-phenyl)-acetic acid], the IC50 at PTGER4 (EP4) is 112 nM; on PTGER2 (EP2), 262 nM.

Take `CCOc1cc(-c2cc(NCCc3cc4c(cc3OC(F)F)OCCO4)ncn2)sc1C(=O)O` [Example 433, 5-{6-[2-(7-Difluoromethoxy-2,3-dihydro-benzo[1,4]dioxin-6-yl)-ethylamino}-pyrimidin-4-yl}-3-ethoxy-thiophene-2-carboxylic acid]: the IC50 against PTGER4 (EP4) was found to be 19 nM; on PTGER2 (EP2), 30 nM.

In the case of `Cc1c(CCNc2cc(-c3ccc(C(=O)O)c(OC4CCC4)c3)ncn2)ccc2ccsc12` [Example 471, 2-Cyclobutoxy-4-{6-[2-(7-methyl-benzo[b]thiophen-6-yl)-ethylamino]-pyrimidin-4-yl}-benzoic acid], the IC50 was found to be 300 nM on PTGER4 (EP4) and 207 nM at PTGER2 (EP2).

Turning to `CCCc1cc(-c2cc(NCCc3cc4ccsc4cc3OC)ncn2)ccc1C(=O)O` [Example 377, 4-{6-[2-(6-Methoxy-benzo[b]thiophen-5-yl)-ethylamino]-pyrimidin-4-yl}-2-propyl-benzoic acid], the IC50 at PTGER4 (EP4) turned out to be 68 nM; at PTGER2 (EP2), 8 nM.

Regarding `O=C(O)c1cccc2[nH]c(-c3cc(NCCc4cc(F)c5sccc5c4)ncn3)cc12` [Example 531, 2-{6-[2-(7-Fluoro-benzo[b]thiophen-5-yl)-ethylamino]-pyrimidin-4-yl}-1H-indole-4-carboxylic acid], the values for the IC50 on PTGER4 (EP4) and on PTGER2 (EP2) were 110 nM and 624 nM, respectively.

In the case of `CCOc1cc(-c2cc(NCCc3ccc4scc(Cl)c4c3)ncn2)ccc1C(=O)O` [Example 490, 4-{6-[2-(3-Chloro-benzo[b]thiophen-5-yl)-ethylamino]-pyrimidin-4-yl}-2-ethoxy-benzoic acid], the IC50 was determined as 144 nM on PTGER4 (EP4) and 90 nM at PTGER2 (EP2).

In the case of `CCOc1cc(-c2cc(NCCc3cc(F)c4sccc4c3)ncn2)ccc1C(=O)NCCO` [Example 464, 2-Ethoxy-4-{6-[2-(7-fluoro-benzo[b]thiophen-5-yl)-ethylamino]-pyrimidin-4-yl}-N-(2-hydroxy-ethyl)-benzamide], the IC50 against PTGER4 (EP4) came to 87 nM; on PTGER2 (EP2), 300 nM.
